Columns and labels:
[1] = target: Activated CDC42 kinase 1 (Homo sapiens) (UniProt Q07912); assay: Inhibition of TNK2 at 10 uM
[2] = target: Serine/threonine-protein kinase PAK 5 (Homo sapiens) (UniProt Q9P286); assay: Inhibition of PAK5 (PAK7) at 10 uM
[3] = target: Insulin receptor-related protein (Homo sapiens) (UniProt P14616); assay: Inhibition of IRR at 10 uM
[4] = target: Dual specificity protein kinase CLK3 (Homo sapiens) (UniProt P49761); assay: Inhibition of CLK3 at 10 uM
[5] = tested on: Tyrosine-protein kinase ABL1 (Homo sapiens), P00519 [T315I]; assay: Inhibition of ABL T315I mutant at 10 uM
[6] = target: STE20-like serine/threonine-protein kinase (Homo sapiens) (UniProt Q9H2G2); assay: Inhibition of SLK at 10 uM
TAK1/TAB1 (Homo sapiens) = TAK1/TAB1 (Homo sapiens) (UniProt Q15750+O43318); assay: Inhibition of TAK1-TAB1 at 10 uM; type: protein-complex assay
[7] = target: Ephrin type-A receptor 5 (Homo sapiens) (UniProt P54756); assay: Inhibition of EPHA5 at 10 uM
[8] = target: Tyrosine-protein kinase Lyn (Homo sapiens) (UniProt P07948); assay: Inhibition of LYNb at 10 uM
[9] = target: Ephrin type-A receptor 3 (Homo sapiens) (UniProt P29320); assay: Inhibition of EPHA3 at 10 uM
[10] = target: Dual specificity mitogen-activated protein kinase kinase 6 (Homo sapiens) (UniProt P52564); assay: Inhibition of MAP2K6 at 10 uM
[11] = target: Serine/threonine-protein kinase BRSK1 (Homo sapiens) (UniProt Q8TDC3); assay: Inhibition of BRSK1 at 10 uM
EML4-ALK (Homo sapiens) = EML4-ALK (Homo sapiens) (UniProt Q9UM73+Q9HC35); assay: Inhibition of EML4-ALK at 10 uM; type: protein assay
[12] = target: PI3-kinase p110-alpha/p85-alpha (Homo sapiens) (UniProt P27986+P42336); assay: Inhibition of PIK3CA/PIK3R1 at 10 uM; type: protein-complex assay
[13] = target: [Pyruvate dehydrogenase (acetyl-transferring)] kinase isozyme 4, mitochondrial (Homo sapiens) (UniProt Q16654); assay: Inhibition of PDHK4 at 10 uM
[14] = target: Serine/threonine-protein kinase 4 (Homo sapiens) (UniProt Q13043); assay: Inhibition of MST1 at 10 uM
[15] = target: Serine/threonine-protein kinase TBK1 (Homo sapiens) (UniProt Q9UHD2); assay: Inhibition of TBK1 at 10 uM
[16] = target: Ephrin type-B receptor 2 (Homo sapiens) (UniProt P29323); assay: Inhibition of EPHB2 at 10 uM
[17] = target: Serine/threonine-protein kinase PLK3 (Homo sapiens) (UniProt Q9H4B4); assay: Inhibition of PLK3 at 10 uM
[18] = target: MAP/microtubule affinity-regulating kinase 4 (Homo sapiens) (UniProt Q96L34); assay: Inhibition of MARK4 at 10 uM
[19] = target: Protein-tyrosine kinase 6 (Homo sapiens) (UniProt Q13882); assay: Inhibition of BRK at 10 uM
[20] = target: Mitogen-activated protein kinase kinase kinase 5 (Homo sapiens) (UniProt Q99683); assay: Inhibition of MAP3K5 at 10 uM
[21] = target: Inhibitor of nuclear factor kappa-B kinase subunit beta (Homo sapiens) (UniProt O14920); assay: Inhibition of IKKb at 10 uM
[22] = target: cGMP-dependent protein kinase 1 (Homo sapiens) (UniProt Q13976); assay: Inhibition of PRKG1 at 10 uM
[23] = target: Mitogen-activated protein kinase 12 (Homo sapiens) (UniProt P53778); assay: Inhibition of p38gamma at 10 uM
[24] = target: Mitogen-activated protein kinase kinase kinase 2 (Homo sapiens) (UniProt Q9Y2U5); assay: Inhibition of MAP3K2 at 10 uM
[25] = target: Serine/threonine-protein kinase MARK2 (Homo sapiens) (UniProt Q7KZI7); assay: Inhibition of MARK2 at 10 uM
[26] = target: LKB1-STRAD-MO25 complex (Homo sapiens) (UniProt Q15831+Q7RTN6+Q9Y376); assay: Inhibition of LKB1-MO25a-STRADa at 10 uM; type: protein-complex assay
[27] = target: MAP kinase-activated protein kinase 3 (Homo sapiens) (UniProt Q16644); assay: Inhibition of MAPKAPK3 at 10 uM
[28] = target: Rho-associated protein kinase 1 (Homo sapiens) (UniProt Q13464); assay: Inhibition of ROCK1 at 10 uM
[29] = target: Proto-oncogene serine/threonine-protein kinase mos (Homo sapiens) (UniProt P00540); assay: Inhibition of MOS at 10 uM
[30] = target: MAP/microtubule affinity-regulating kinase 3 (Homo sapiens) (UniProt P27448); assay: Inhibition of MARK3 at 10 uM
[31] = target: Serine/threonine-protein kinase Nek9 (Homo sapiens) (UniProt Q8TD19); assay: Inhibition of NEK9 at 10 uM
[32] = target: Tyrosine-protein kinase Fyn (Homo sapiens) (UniProt P06241); assay: Inhibition of FYN at 10 uM
[33] = target: Serine/threonine-protein kinase SIK2 (Homo sapiens) (UniProt Q9H0K1); assay: Inhibition of QIK at 10 uM
[34] = tested on: Epidermal growth factor receptor (Homo sapiens), P00533 [L858R]; assay: Inhibition of EGFR L858R mutant at 10 uM; type: protein assay
[35] = target: Cyclin-dependent kinase 2/cyclin A (Homo sapiens) (UniProt P24941+P20248+P78396); assay: Inhibition of CDK2-Cyclin A2 at 10 uM; type: protein-complex assay
[36] = target: Casein kinase I isoform gamma-1 (Homo sapiens) (UniProt Q9HCP0); assay: Inhibition of CK1g1 at 10 uM
[37] = target: Dual specificity tyrosine-phosphorylation-regulated kinase 3 (Homo sapiens) (UniProt O43781); assay: Inhibition of DYRK3 at 10 uM
[38] = target: Serine/threonine-protein kinase Nek4 (Homo sapiens) (UniProt P51957); assay: Inhibition of NEK4 at 10 uM
[39] = target: Mitogen-activated protein kinase kinase kinase 8 (Homo sapiens) (UniProt P41279); assay: Inhibition of COT at 10 uM
[40] = target: Serine/threonine-protein kinase 38-like (Homo sapiens) (UniProt Q9Y2H1); assay: Inhibition of NDR2 at 10 uM
[41] = target: CDC7/DBF4 (Cell division cycle 7-related protein kinase/Activator of S phase kinase) (Homo sapiens) (UniProt Q9UBU7+O00311); assay: Inhibition of CDC7-Dbf4 at 10 uM; type: protein-complex assay
[42] = tested on: Epidermal growth factor receptor (Homo sapiens), P00533 [T790M]; assay: Inhibition of EGFR T790M mutant at 10 uM; type: protein assay
[43] = target: MAP kinase-activated protein kinase 5 (Homo sapiens) (UniProt Q8IW41); assay: Inhibition of MAPKAPK5 at 10 uM

Chain of Serine/threonine-protein kinase Nek4 (Homo sapiens) (P51957 whole entry, looked up): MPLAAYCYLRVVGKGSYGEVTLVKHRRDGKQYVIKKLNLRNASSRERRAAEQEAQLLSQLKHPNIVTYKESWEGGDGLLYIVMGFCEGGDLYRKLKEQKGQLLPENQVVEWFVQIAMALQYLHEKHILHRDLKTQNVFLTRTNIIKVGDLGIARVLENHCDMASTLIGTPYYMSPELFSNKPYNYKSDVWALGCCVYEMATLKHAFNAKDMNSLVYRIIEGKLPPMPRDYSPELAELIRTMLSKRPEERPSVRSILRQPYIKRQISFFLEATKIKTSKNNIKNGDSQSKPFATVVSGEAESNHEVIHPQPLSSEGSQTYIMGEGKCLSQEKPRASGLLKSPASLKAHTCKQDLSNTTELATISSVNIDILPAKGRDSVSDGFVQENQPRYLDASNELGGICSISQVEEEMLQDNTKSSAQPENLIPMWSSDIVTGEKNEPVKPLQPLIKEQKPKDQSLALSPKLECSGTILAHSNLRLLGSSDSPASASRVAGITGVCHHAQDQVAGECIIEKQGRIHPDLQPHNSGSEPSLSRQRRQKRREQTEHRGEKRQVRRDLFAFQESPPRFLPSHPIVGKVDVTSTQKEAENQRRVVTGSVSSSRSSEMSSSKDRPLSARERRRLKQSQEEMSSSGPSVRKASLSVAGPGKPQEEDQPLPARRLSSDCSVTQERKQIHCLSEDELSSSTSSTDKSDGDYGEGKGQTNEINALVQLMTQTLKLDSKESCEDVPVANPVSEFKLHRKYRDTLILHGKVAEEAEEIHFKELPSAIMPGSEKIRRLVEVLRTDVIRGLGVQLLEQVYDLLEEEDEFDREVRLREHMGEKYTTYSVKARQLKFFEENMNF
Chain of Ephrin type-B receptor 2 (Homo sapiens) (P29323 whole entry): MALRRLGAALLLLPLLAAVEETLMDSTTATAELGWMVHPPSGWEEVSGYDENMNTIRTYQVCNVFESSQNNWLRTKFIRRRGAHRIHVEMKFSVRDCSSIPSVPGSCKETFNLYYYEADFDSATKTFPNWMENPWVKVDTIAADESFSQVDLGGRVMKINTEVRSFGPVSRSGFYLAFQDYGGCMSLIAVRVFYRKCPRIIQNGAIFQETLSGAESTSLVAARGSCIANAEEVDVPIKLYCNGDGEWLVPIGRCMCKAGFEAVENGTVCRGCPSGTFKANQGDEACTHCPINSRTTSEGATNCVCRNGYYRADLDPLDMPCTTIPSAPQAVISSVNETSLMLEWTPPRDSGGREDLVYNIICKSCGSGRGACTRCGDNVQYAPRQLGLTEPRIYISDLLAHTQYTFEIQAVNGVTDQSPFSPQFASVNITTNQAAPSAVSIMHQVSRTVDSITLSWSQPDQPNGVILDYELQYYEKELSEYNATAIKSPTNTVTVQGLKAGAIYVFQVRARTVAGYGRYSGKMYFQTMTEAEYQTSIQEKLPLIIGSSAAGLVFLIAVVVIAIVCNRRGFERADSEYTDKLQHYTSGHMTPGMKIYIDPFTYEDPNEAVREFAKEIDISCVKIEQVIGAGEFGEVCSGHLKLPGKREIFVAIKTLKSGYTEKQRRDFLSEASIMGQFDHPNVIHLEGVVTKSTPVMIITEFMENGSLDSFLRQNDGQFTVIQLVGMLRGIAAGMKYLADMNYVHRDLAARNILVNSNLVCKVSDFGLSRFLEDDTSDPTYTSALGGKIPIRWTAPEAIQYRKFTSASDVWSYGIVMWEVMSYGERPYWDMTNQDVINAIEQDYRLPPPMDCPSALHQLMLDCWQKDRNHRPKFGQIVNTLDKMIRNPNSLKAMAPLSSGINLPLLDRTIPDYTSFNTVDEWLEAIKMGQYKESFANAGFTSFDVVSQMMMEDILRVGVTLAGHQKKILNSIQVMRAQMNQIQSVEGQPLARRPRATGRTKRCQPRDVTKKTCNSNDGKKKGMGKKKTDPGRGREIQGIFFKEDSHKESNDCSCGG
Chain of EML4-ALK (Homo sapiens) (Q9HC35 whole entry partner): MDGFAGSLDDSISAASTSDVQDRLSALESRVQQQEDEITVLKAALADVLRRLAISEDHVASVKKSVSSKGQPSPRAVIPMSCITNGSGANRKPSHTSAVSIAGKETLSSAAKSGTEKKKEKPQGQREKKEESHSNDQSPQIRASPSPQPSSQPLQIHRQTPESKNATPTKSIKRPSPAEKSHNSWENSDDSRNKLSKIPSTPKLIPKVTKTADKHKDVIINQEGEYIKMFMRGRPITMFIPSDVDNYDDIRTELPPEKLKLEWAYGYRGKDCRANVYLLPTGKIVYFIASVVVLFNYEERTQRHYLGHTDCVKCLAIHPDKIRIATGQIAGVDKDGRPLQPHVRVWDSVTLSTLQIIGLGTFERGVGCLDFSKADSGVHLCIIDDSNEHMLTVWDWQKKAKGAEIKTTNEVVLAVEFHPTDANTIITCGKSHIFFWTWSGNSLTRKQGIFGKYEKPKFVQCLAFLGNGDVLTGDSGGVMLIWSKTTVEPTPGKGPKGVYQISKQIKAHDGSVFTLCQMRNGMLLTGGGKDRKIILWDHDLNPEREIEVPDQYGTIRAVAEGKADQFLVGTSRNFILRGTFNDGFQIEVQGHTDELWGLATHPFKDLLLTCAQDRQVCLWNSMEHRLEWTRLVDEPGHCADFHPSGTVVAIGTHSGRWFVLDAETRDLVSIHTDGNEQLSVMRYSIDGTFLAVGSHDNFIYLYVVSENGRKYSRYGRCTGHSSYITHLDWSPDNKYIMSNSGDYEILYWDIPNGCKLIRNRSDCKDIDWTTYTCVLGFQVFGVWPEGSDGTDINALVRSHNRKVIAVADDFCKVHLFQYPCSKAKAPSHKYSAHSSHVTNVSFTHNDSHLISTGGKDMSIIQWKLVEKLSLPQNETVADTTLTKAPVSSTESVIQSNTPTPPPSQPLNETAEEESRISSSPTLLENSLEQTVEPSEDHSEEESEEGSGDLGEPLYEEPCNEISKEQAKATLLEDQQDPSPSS
Chain of EML4-ALK (Homo sapiens) (Q9UM73 19-1620 limits assumed): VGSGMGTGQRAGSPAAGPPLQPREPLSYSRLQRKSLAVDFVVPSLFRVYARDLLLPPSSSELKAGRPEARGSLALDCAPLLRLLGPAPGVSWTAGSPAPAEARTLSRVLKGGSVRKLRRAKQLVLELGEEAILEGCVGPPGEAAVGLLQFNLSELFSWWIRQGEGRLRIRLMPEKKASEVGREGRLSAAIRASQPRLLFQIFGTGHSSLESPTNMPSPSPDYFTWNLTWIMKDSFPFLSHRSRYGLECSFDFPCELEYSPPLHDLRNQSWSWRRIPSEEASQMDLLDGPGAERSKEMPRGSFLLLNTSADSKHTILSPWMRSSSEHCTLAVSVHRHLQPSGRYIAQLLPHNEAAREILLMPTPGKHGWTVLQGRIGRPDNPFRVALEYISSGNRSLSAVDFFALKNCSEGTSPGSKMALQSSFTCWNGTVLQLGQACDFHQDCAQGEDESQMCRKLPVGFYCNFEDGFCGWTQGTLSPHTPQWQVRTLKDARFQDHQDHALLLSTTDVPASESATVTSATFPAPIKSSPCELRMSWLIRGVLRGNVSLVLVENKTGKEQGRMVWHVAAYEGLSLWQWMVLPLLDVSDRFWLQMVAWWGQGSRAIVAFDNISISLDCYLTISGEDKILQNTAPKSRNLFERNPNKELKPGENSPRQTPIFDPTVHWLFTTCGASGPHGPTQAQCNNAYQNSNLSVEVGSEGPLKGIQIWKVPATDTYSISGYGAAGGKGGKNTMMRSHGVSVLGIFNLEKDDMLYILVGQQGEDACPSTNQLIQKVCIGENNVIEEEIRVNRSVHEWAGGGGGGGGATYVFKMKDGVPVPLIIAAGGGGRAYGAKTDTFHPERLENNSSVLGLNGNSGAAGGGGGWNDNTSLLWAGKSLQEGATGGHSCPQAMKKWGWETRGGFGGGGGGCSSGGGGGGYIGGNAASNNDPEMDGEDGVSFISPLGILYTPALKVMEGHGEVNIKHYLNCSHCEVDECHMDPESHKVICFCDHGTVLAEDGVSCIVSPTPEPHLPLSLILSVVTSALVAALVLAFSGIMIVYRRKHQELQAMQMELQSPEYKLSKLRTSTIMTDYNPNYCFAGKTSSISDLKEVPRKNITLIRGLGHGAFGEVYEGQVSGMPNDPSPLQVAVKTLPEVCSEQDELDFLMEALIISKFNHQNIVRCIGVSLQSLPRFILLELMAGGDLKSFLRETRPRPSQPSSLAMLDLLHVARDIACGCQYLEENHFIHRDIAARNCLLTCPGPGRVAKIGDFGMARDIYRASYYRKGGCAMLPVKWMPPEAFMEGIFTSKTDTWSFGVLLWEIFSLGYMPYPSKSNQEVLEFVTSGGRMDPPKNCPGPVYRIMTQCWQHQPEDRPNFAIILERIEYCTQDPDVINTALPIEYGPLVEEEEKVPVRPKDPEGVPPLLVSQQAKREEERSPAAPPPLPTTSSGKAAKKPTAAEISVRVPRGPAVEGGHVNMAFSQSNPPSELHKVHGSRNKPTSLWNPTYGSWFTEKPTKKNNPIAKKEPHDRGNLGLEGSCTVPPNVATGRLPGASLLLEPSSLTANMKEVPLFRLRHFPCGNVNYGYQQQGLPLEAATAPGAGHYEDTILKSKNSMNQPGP
Chain of Serine/threonine-protein kinase PLK3 (Homo sapiens) (Q9H4B4 whole entry, looked up): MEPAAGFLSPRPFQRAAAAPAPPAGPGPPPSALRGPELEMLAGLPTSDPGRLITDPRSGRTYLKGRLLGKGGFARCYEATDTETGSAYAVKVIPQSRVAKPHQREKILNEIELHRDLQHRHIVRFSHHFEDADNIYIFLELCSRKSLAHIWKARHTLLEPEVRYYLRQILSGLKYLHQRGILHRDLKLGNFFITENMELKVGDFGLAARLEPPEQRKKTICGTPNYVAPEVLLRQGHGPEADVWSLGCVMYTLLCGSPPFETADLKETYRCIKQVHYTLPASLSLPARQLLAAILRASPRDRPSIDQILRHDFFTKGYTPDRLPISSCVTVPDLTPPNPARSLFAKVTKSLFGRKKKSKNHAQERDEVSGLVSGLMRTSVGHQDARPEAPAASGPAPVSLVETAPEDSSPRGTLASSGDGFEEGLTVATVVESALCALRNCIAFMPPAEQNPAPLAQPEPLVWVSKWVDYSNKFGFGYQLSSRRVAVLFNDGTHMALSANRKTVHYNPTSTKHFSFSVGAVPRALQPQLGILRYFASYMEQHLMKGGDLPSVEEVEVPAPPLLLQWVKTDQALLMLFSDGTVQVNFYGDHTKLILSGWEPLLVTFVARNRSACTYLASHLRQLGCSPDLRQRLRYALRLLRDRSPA

## COc1ccc2c3ccnc(C(F)(F)F)c3n(CCCCN)c2c1
[1]
  inhibition: 0%
[2]
  inhibition: 6%
[3]
  inhibition: 0%
[4]
  inhibition: 37%
[5]
  inhibition: 0%
[6]
  inhibition: 20%
TAK1/TAB1 (Homo sapiens)
  inhibition: 12%
[7]
  inhibition: 4%
[8]
  inhibition: 0%
[9]
  inhibition: 0%
[10]
  inhibition: 46%
[11]
  inhibition: 34%
EML4-ALK (Homo sapiens)
  inhibition: 12%
[12]
  inhibition: 13%
[13]
  inhibition: 34%
[14]
  inhibition: 14%
[15]
  inhibition: 4%
[16]
  inhibition: 0%
[17]
  inhibition: 10%
[18]
  inhibition: 50%
[19]
  inhibition: 1%
[20]
  inhibition: 17%
[21]
  inhibition: 30%
[22]
  inhibition: 80%
[23]
  inhibition: 66%
[24]
  inhibition: 13%
[25]
  inhibition: 52%
[26]
  inhibition: 21%
[27]
  inhibition: 1%
[28]
  inhibition: 84%
[29]
  inhibition: 16%
[30]
  inhibition: 47%
[31]
  inhibition: 0%
[32]
  inhibition: 8%
[33]
  inhibition: 26%
[34]
  inhibition: 10%
[35]
  inhibition: 65%
[36]
  inhibition: 66%
[37]
  inhibition: 97%
[38]
  inhibition: 4%
[39]
  inhibition: 7%
[40]
  inhibition: 2%
[41]
  inhibition: 14%
[42]
  inhibition: 3%
[43]
  inhibition: 1%
